Entries after “also recorded” stand apart in the source; their conditions may differ.
What was measured:
[1] = biological target: T1, human recombinant COX-2 (Homo sapiens, UniProt P35354); test: Cyclooxygenase inhibition assay (COX Fluorescent Inhibitor Screening Assay Kit), COX-2; format: biochemical
T1 construct: purchased Cayman Chemical 700100
T1 sequence (P35354 18-604): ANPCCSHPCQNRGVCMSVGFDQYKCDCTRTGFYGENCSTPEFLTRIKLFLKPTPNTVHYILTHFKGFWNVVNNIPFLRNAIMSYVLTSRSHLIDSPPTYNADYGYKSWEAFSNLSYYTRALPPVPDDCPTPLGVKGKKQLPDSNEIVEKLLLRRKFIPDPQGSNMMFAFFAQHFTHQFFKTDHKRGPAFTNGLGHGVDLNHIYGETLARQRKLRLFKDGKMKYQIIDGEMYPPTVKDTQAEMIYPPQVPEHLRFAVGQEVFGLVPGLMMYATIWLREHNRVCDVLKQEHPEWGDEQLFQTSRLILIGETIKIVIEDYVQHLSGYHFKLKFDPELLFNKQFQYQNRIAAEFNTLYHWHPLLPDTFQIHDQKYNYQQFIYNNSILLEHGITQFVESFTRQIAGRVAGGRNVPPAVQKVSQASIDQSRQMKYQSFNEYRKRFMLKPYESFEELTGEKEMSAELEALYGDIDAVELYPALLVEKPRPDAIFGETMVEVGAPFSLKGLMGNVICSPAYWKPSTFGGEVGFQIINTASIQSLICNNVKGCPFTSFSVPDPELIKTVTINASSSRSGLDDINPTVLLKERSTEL
Procedure: (§1) Stock solutions of test compounds are dissolved in a minimum volume of DMSO. 10 μl of various concentrations of the test compound solutions, e.g., [I]final between 0.01 and 100 μM, are added to a series of supplied reaction buffer solutions (150 μl, 100 mM Tris-HCl, pH 8.0) with either COX-1 or COX-2 (10 μl) enzyme in the presence of Heme (10 μl) and a fluorometric substrate (10 μl). The reactions are initiated by quickly adding 10 μl of arachidonic acid solution and then incubating the system for two minutes at room temperature. […] The intensity of this fluorescence is proportional to the amount of resorufin, which is proportional to the amount of PGG2 present in the well during the incubation. Percent inhibition is calculated by comparison from the 100% initial activity sample value (no inhibitor).
as §1, with “compounds were” for “compounds are”, “μM, were” for “μM, are”, “reactions were” for “reactions are”, “then incubated” for “then incubating the system”, “inhibition was” for “inhibition is”

[2] = biological target: T2, ovine COX-1 (Ovis aries, UniProt P05979); test: Cyclooxygenase inhibition assay (COX Fluorescent Inhibitor Screening Assay Kit), COX-1; format: biochemical; details: for inhibition at 100 µM: read-out: COX-1 (% inhibition)
T2 construct: purchased Cayman Chemical 700100
T2 sequence (P05979 25-600): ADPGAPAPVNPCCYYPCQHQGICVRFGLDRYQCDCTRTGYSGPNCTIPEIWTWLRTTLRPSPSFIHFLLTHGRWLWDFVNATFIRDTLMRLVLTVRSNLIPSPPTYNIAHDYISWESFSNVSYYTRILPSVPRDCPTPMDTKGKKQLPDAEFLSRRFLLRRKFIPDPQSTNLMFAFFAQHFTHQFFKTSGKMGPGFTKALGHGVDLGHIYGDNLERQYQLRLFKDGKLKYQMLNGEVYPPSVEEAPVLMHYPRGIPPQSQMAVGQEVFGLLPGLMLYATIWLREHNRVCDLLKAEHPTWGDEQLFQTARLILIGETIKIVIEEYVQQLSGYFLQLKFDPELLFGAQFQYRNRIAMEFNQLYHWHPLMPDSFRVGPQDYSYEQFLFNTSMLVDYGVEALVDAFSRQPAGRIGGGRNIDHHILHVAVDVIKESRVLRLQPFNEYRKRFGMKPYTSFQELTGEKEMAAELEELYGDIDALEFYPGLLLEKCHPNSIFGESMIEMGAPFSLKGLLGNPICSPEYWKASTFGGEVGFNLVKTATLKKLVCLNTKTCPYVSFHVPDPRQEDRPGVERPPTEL
Procedure: as §1
as §1, with “compounds were” for “compounds are”, “μM, were” for “μM, are”, “reactions were” for “reactions are”, “then incubated” for “then incubating the system”, “inhibition was” for “inhibition is”

[3] = Pharmacokinetics in mice by oral cassette dosing; format: in vivo; details: oral cassette dosing at 5 mg/kg, blood
Procedure: All the animal experiments were performed according to protocols approved by the Animal Use and Care Committee of University of California, Davis. […] Each cassette was orally administered to 4 mice at a dose of 5 mg/kg in 120-150 μl of vehicle depending on animal weight. […] The instrument was equipped with a linear ion trap and a Turbo V ion source and was operated in negative ion MRM mode. […] This was maintained for 3 min, then the gradient was returned to 30% solvent B in 2 min. The flow rate was 0.4 mL/min. The injection volume was 10 μL and the samples were kept at 4° C. in the auto sampler.

[4] = test system: HepG2 cells; test: HepG2 cell viability analysis (MTT); format: cell-based; details: Homo sapiens, HepG2; MTT after 24 hours of incubation
Procedure: Cells were plated at 10,000 cell per well in 96-well plates and allowed to attach overnight under the growth conditions described above. […] These compounds were dissolved in 100% DMSO and diluted with EMEM to the desired concentration of 0.1 μM, 1.0 μM, 10 μM, 25 μM, and 50 μM, with a final DMSO concentration of 0.1% for all cell-based in vitro studies. All studies included DMSO as a solvent control. Cell viability was determined using the MTT Cell Viability Assay Kit from ATCC according to manufacturer's instructions. The 96-well plates were measure at 570 nm using SpectroMax 190 plate reader (Molecular Devices, Sunnyvale, Calif.). […] Each concentration was performed in triplicate per 96-well plate and EC50 data are presented as the mean±standard deviation from at least 3 separate experiments performed on separate days.

[5] = biological target: T3, 5-LOX (Homo sapiens, UniProt P09917); test: Potency against 5-LOX; format: biochemical; details: compared with celecoxib
T3 sequence (P09917 1-674): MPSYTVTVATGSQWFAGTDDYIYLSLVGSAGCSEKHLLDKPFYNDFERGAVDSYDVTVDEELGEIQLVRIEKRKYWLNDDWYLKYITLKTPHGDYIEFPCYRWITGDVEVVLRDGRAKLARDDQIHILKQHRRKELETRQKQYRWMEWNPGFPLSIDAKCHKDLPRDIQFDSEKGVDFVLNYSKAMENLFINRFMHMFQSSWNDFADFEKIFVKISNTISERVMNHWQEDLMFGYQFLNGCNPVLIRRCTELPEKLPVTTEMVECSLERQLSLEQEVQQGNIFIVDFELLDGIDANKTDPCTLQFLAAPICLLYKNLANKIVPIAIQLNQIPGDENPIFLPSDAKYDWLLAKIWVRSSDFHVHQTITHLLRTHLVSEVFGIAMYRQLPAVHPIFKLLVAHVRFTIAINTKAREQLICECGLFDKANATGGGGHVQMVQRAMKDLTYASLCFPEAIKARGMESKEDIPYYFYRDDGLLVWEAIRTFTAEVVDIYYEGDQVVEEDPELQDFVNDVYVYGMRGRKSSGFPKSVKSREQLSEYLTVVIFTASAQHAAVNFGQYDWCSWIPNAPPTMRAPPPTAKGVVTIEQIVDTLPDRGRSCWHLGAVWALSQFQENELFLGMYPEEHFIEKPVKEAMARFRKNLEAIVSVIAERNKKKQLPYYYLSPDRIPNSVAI

[6] = Pharmacokinetics in rats by oral administration
[7] = test system: LPS induced allodynia; test: Von Frey mechanical nociceptive assay, LPS induced model of inflammatory pain; format: in vivo; details: male SD rats, 10 mg/kg s.c. 60 minutes before intraplantar LPS, tested until 6 hours post LPS
Procedure: In vivo anti-allodynic effects of the COX-2/sEH dual inhibitors provided herein was assayed. An LPS induced model of inflammatory pain was used to compare the pain reducing activity of the COX-2/sEH dual inhibitors to combination and individual therapies.
Rats weighing approximately 250-300 grams are brought to the testing apparatus and allowed to acclimate for 30 minutes. After 30 minutes the rats are tested with a von Frey aesthesiometer for their non-treated baseline withdrawal latency to mechanical stimulation. The von Frey apparatus is a raised metal mesh platform that has clear acrylic chambers to enclose rats but allow them to move freely. A rigid tip von Frey probe is used to probe the plantar surface of the rat hind paw though the mesh floor to elicit a withdrawal response. The measures recorded are grams of force applied to the hind paw required to elicit a withdrawal. The pretreatment baseline score is considered the pain-free baseline (BL) and is assigned 100% for further response calculations. […] The measures are then calculated as a percent of the pretreatment baseline score.

[8] = biological target: T4, human sEH (Homo sapiens, UniProt P34913); test: sEH IC50 assay, fluorescent-based with CMNPC substrate; format: biochemical; details: compared to compound 11g
T4 sequence (P34913 1-555): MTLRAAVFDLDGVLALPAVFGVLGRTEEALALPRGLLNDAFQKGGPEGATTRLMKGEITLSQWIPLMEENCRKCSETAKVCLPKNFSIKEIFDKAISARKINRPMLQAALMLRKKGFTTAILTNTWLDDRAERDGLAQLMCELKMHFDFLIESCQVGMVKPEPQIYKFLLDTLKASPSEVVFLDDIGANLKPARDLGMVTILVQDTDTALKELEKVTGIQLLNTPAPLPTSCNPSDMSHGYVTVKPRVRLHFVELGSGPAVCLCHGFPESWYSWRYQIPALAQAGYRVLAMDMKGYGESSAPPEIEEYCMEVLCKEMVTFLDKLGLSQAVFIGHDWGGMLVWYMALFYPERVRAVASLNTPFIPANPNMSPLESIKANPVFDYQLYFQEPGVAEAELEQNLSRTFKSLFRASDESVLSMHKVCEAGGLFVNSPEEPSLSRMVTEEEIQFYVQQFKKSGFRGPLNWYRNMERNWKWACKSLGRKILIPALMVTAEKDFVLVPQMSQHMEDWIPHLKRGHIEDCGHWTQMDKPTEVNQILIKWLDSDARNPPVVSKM
Procedure: sEH inhibition IC50 values for the compounds presented herein can be assayed by a recombinant affinity assay using purified sEHs, from human, mouse or rat, in a fluorescent-based assay.
For the recombinant affinity assay, purified sEHs (human, mouse and rat) were used in a fluorescent-based assay to determine IC50 values. […] These IC50 values were calculated from at least three separate runs, each in triplicate, to obtain the statistics herein, e.g., standard deviation.

[9] = human recombinant COX-2, triplicate average
[10] = rats, oral administration at 1 mg/kg (n = 4), blood

Row | Compound | IC50 [1, 9] | IC50 [2] | inhibition at 100 µM [2] | AUC [3] | Cmax [3] | Tmax [3] | t1/2 [3] | EC50 [4] | Potency against 5-LOX, in words [5] | half-life ([6]; male, Sprague-Dawley, rat, whole blood, po, 1 mg/kg) | AUC [6, 10] | Cmax [6, 10] | Tmax [6, 10] | COX-1 (% inhibition) ([2]; ovine COX-1, % inhibition at 100 μM concentration) | Anti-allodynic effect, von Frey paw withdrawal, in words [7] | Improvement of sEH inhibition [8] | IC50 ([1]; text of b131, unit inferred)
1 | NS(=O)(=O)c1ccc(-n2nc(CCCNC(=O)Nc3ccc(OC(F)(F)F)cc3)cc2-c2ccccc2)cc1 [Compound 21j, 4-(5-Phenyl-3-{3-[3-(4-trifluoromethoxy-phenyl)-ureido]-propyl}-pyrazol-1-yl)-benzenesulfonamide] | 0.92 µM | > 100 µM | 13.8% | 1.335 µM·h | 290 nM | 0.8 h | 2.4 h | 10 ± 2 µM | comparable with celecoxib | 11.6 ± 5.6 h | 1.23 ± 0.521 µM·h | 180 ± 71 nM | 1.0 ± 0.7 h | – | – | – | –
2 | O=C(NC1CCC(Oc2ccc(C(=O)O)cc2)CC1)NC12CC3CC(CC(C3)C1)C2 (centres unmarked) [t-AUCB, reference compound] | – | – | – | – | – | – | – | – | – | – | – | – | – | 25.2% | slight antihyperalgesic effect; also recorded: limited effect | – | –
3 | Cc1ccc(-c2cc(C(F)(F)F)nn2-c2ccc(S(N)(=O)=O)cc2)cc1 [Celecoxib, celecoxib, reference compound] | – | – | – | – | – | – | – | 20 ± 4 µM | – | – | – | – | – | – | – | – | –
4 | NS(=O)(=O)c1ccc(-n2nc(CCCNC(=O)Nc3cccc(C(F)(F)F)c3)cc2-c2ccccc2)cc1 [Compound 21b, 4-(5-Phenyl-3-{3-[3-(3-trifluoromethyl-phenyl)-ureido]-propyl}-pyrazol-1-yl)-benzenesulfonamide] | 0.71 µM | > 100 µM | 27.2% | 0.035 µM·h | 19 nM | 0.5 h | 1.0 h | – | comparable with celecoxib | – | – | – | – | – | – | 20 fold | 0.71 µM

Source: patent publication US9096532B2, “Pyrazole inhibitors of COX-2 and sEH” (The Regents of the University of California, priority 2010, dated 2015)
